Measured values: patent US20260184708A1, “PYRIDAZINONES AND METHODS OF USE THEREOF” (GFB (ABC), LLC, priority 2017, published 2026)

Target: T1, TRPC5 (Homo sapiens, UniProt Q9UL62)
T1 construct: expressed in transfected cells; host or cells: HEK 293
T1 sequence (Q9UL62 1-973): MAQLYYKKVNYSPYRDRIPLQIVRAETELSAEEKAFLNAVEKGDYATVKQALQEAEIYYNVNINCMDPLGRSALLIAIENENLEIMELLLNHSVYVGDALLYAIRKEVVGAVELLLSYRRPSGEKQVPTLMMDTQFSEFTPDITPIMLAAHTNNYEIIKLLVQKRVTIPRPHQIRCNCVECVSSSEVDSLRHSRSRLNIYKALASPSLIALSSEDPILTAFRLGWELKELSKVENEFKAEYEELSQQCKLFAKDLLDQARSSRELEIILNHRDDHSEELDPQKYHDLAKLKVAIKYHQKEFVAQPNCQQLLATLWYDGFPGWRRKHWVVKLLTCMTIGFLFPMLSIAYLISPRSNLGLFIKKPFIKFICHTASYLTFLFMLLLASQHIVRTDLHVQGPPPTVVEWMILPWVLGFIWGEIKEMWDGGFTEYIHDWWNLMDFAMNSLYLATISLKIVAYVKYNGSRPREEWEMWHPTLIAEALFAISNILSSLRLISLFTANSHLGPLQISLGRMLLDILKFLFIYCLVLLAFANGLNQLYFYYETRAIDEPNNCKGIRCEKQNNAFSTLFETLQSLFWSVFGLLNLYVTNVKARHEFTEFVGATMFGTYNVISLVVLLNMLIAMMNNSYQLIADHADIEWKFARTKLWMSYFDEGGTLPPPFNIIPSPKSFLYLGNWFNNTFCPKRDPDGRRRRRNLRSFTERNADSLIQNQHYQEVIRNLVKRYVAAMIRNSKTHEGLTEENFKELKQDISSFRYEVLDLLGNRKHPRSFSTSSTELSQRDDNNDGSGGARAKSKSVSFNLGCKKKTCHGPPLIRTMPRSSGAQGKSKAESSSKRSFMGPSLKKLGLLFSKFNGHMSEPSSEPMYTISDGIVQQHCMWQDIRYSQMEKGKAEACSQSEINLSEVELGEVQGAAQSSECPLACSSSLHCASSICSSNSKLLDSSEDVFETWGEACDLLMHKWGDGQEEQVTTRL
Assay: TRPC5 Fluorescence Assay - FLIPR format (HEK-TREx hTRPC5, Riluzole stimulation)
Type: cell-based
Conditions: Table 7, read-out: TRPC5-FLIPR IC50
Description: • Cell line: ICLN-001633 • Base Cell: HEK • Channel: TRPC5 • Species: Human • Thaw ID: multiple • Passage: multiple
FLIPR Assay Buffer (Earls Balanced Salt Solution (EBSS) was prepared as follows:
Test Agent Preparation: Compounds were made up to, or supplied as, a 10 mM stock solution generally using DMSO as the vehicle. 10-point dose response curves were generated using the Echo-550 acoustic dispenser. Compound source plates were made by serially diluting compound stocks to create 10 mM, 1 mM, and 0.1 mM solutions in DMSO into Echo certified LDV plates. The Echo then serially spotted 100% DMSO stock solutions into source dose response plates to generate a 4-fold dilution scheme. 100% DMSO was added to the spotted dose response plates to bring the final volume to 5 μl. […] of the dose response stock plate was then spotted into pre-incubation and stimulation assay plates. 50 μl of pre-incubation buffer and 100 μl of stimulation buffer was then added to the plates resulting in a final assay test concentration range of 30 μM to 0.0001 μM with a final DMSO concentration of 0.3%.
Experimental Methods: Cells expressing TRPC5 (HEK-TREx hTRPC5) are plated onto 384 well, black PDL-coated microplates and maintained in TRPC5 growth media the day prior to use for experiments. TRPC5 expression is induced by the application of […] tetracycline at the time of plating. Media is removed from the plates and 10 μl of 4 μM of Fluo-4 AM (mixed with equal volume of Pluronic F-127) in EBSS is added to the cells. Cells are incubated at room temperature, protected from light, for 60-90 minutes. After the incubation period, the dye is removed and replaced with 10 μl of EBSS. Cell, pre-incubation and stimulation plates are loaded onto the FLIPR-II and the assay is initiated. The FLIPR measures a 10 second baseline and then adds 10 μl of 2× compounds (or controls). Changes in fluorescence are monitored for an additional 5 minutes. After the 5 minute pre-incubation, 20 μl of 2× Riluzole (with 1× compound or controls) is added to the cell plate. The final Riluzole stimulation concentration in the assay is 30 μM. After the Riluzole addition, changes in fluorescence are monitored for an additional 5 minutes.
Test Agent Effect: Test agent modulation of TRPC5 calcium response was determined as follows. After the Riluzole, fluorescence was monitored for a 5 minute period. The maximum relative fluorescene response (minus the control response of 1 μM of the control inhibitor) was captured and exported from the FLIPR. Test agent effect was calculated as % inhibition using the following formula: % inhibition=((RFU Test Agent−Plate Average RFU REF INHIB)/(Plate Average RFU Control−Plate Average RFU REF INHIB))×100

Row | Structure (SMILES) | IC50
1 | O=c1[nH]ncc(N2CCc3c(c(=O)[nH]n3Cc3ccccc3C(F)F)C2)c1Cl [drawing 936] | 0.01 to 1000 nM
2 | CN(Cc1ccccc1C(F)(F)F)c1ncnc2c1CCN(c1cn[nH]c(=O)c1Cl)C2 | 5000 to 10000 nM
3 | NC(=O)c1nn(Cc2ccccc2C(F)F)c2c1CN(c1cn[nH]c(=O)c1Cl)CC2 | 0.01 to 1000 nM
4 | O=c1[nH]ncc(N2CCc3c(ncn3Cc3cccnc3CC(F)F)C2)c1Cl [drawing 929] | 0.01 to 1000 nM

Same assay, conditions: Table 9, read-out: hTRPCS-FLIPR IC50

Row | Structure (SMILES) | IC50
5 | CCn1nnc(C)c1CN1CCN(c2cn[nH]c(=O)c2Cl)CC1 | 1000 to 5000 nM
6 | CCc1ncccc1[C@H](C(C)C)N1CCN(c2cn[nH]c(=O)c2Cl)CC1 | 1000 to 5000 nM
7 | C[C@H](c1ccccc1C(F)(F)F)N1CCN(c2cn[nH]c(=O)c2Cl)CC1=O | 1000 to 5000 nM
8 | CCc1ncccc1CC1(O)CCN(c2cn[nH]c(=O)c2Cl)CC1 | 1000 to 5000 nM
9 | CCc1ncccc1NC1CCN(c2cn[nH]c(=O)c2Cl)CC1 | 5000 to 10000 nM
10 | O=C(CN1CCN(c2cn[nH]c(=O)c2Cl)CC1)c1ccccc1C(F)(F)F | 1000 to 5000 nM
11 | COCc1ncccc1CN1CCN(c2cn[nH]c(=O)c2Cl)CC1 [drawing 1030] | 0.01 to 1000 nM
12 | Cc1ccccc1C(O)C1CCN(c2cn[nH]c(=O)c2Cl)CC1 (stereo not shown) | 1000 to 5000 nM
13 | CCc1ncccc1[C@@H](CC)N1CCN(c2cn[nH]c(=O)c2Cl)CC1 | 1000 to 5000 nM

Same assay, conditions: Table 10, read-out: TRPCS-FLIPR IC50

Row | Structure (SMILES) | IC50
14 | CS(=O)(=O)c1nn(Cc2ccc(F)cc2C(F)F)c2c1CN(c1cn[nH]c(=O)c1Cl)CC2 | 0.01 to 1000 nM
15 | C[C@@H](c1ccc(Cl)cc1C(F)(F)F)n1nnc2c1CCN(c1cn[nH]c(=O)c1Cl)C2 | 0.01 to 1000 nM
16 | O=c1[nH]ncc(N2CCc3c(c(=O)[nH]n3Cc3ccccc3C(F)F)C2)c1Cl [drawing 1052] | 0.01 to 1000 nM
17 | CCS(=O)(=O)c1nn(Cc2ccc(F)cc2C(F)F)c2c1CN(c1cn[nH]c(=O)c1Cl)CC2 | 1000 to 5000 nM
18 | CNC(=O)c1nn([C@@H](C)c2ccccc2C(F)F)c2c1CN(c1cn[nH]c(=O)c1Cl)CC2 | 0.01 to 1000 nM
19 | CO[C@H]1CN(c2cn[nH]c(=O)c2Cl)Cc2nnn(Cc3ccccc3C(F)F)c21 | 1000 to 5000 nM
20 | CCCOc1nc2c(n1Cc1ccccc1C(F)(F)F)CCN(c1cn[nH]c(=O)c1Cl)C2 | 0.01 to 1000 nM
21 | N[C@@H](c1nn(Cc2ccccc2C(F)(F)F)c2c1CN(c1cn[nH]c(=O)c1Cl)CC2)C(F)(F)F | 1000 to 5000 nM
22 | O=c1[nH]ncc(N2CCc3c(ncn3Cc3cccnc3[C@H](O)C(F)(F)F)C2)c1Cl | 0.01 to 1000 nM
23 | C[C@H](c1ccccc1C(F)(F)F)n1[nH]c(=O)c2c1CCN(c1cn[nH]c(=O)c1Cl)C2 | 0.01 to 1000 nM
24 | N#Cc1nn(Cc2ccccc2C(F)(F)F)c2c1CN(c1cn[nH]c(=O)c1Cl)CC2 | 0.01 to 1000 nM
25 | C[C@@H](c1ccccc1C(F)(F)F)n1[nH]c(=O)c2c1CCN(c1cn[nH]c(=O)c1Cl)C2 | 0.01 to 1000 nM
26 | O=c1[nH]ncc(N2CCc3c(cnn3Cc3ccc(F)cc3CN3CCOCC3)C2)c1Cl | 0.01 to 1000 nM
27 | C[C@@H](c1ccccc1C(F)(F)F)n1nc(C(N)=O)c2c1CCN(c1cn[nH]c(=O)c1Cl)C2 | 0.01 to 1000 nM
28 | CN(c1ncc2c(n1)CN(c1cn[nH]c(=O)c1Cl)C2)c1ccccc1Cl | 0.01 to 1000 nM
29 | C[C@H]1c2nnn([C@@H](C)c3ccc(F)cc3C(F)(F)F)c2CCN1c1cn[nH]c(=O)c1Cl | 0.01 to 1000 nM
30 | CN(C)Cc1cc(F)ccc1Cn1nnc2c1CCN(c1cn[nH]c(=O)c1Cl)C2 | 1000 to 5000 nM
31 | COC[C@@H](c1ccccc1C(F)(F)F)n1cnc2c1CCN(c1cn[nH]c(=O)c1Cl)C2 | 0.01 to 1000 nM
32 | CC(C)C(=O)Nc1nn(Cc2ccccc2C(F)(F)F)c2c1CN(c1cn[nH]c(=O)c1Cl)CC2 | 0.01 to 1000 nM
33 | C[C@@H](c1ccc(F)cc1CN1CCN(C)CC1)n1nnc2c1CCN(c1cn[nH]c(=O)c1Cl)C2 | 5000 to 10000 nM
34 | CN(c1ccc(F)cc1C(F)(F)F)c1n[nH]c2c1CCN(c1cn[nH]c(=O)c1Cl)C2 | 0.01 to 1000 nM

Row | Structure (SMILES) | IC50
35 | C[C@H](c1ccc(F)cc1C(F)(F)F)c1n[nH]c2c1CCN(c1cn[nH]c(=O)c1Cl)C2 | 0.01 to 1000 nM
36 | O=c1[nH]ncc(N2CCc3c(c(CN4CCOCC4)nn3Cc3ccccc3C(F)F)C2)c1Cl | 0.01 to 1000 nM
37 | O=c1[nH]ncc(N2CCc3c(nnn3Cc3ccc(F)cc3CN3CCOCC3)C2)c1Cl | 1000 to 5000 nM
38 | N[C@H](c1nn(Cc2ccccc2C(F)(F)F)c2c1CN(c1cn[nH]c(=O)c1Cl)CC2)C(F)(F)F | 1000 to 5000 nM
39 | N[C@H](c1cc(F)ccc1Cn1nnc2c1CCN(c1cn[nH]c(=O)c1Cl)C2)C(F)(F)F | 0.01 to 1000 nM
40 | C[C@@H]1Cc2c(nnn2[C@H](C)c2ccc(F)cc2C(F)(F)F)CN1c1cn[nH]c(=O)c1Cl | 0.01 to 1000 nM
41 | C[C@H]1c2nnn([C@@H](C)c3ccccc3C(F)(F)F)c2CCN1c1cn[nH]c(=O)c1Cl | 0.01 to 1000 nM
42 | O=c1[nH]ncc(N2CCc3c(c(-c4ncn[nH]4)nn3Cc3ccccc3C(F)(F)F)C2)c1Cl | 1000 to 5000 nM
43 | CCc1ncccc1[C@H](C)n1nnc2c1CCN(c1cn[nH]c(=O)c1Cl)C2 [drawing 1059] | 0.01 to 1000 nM
44 | COc1nn(Cc2ccccc2C(F)F)c2c1CN(c1cn[nH]c(=O)c1Cl)CC2 [drawing 1056] | 0.01 to 1000 nM
45 | O=c1[nH]ncc(N2Cc3cnc(Oc4ccccc4C(F)(F)F)nc3C2)c1Cl | 0.01 to 1000 nM
46 | CS(=O)(=O)c1nn(Cc2ccc(F)cc2C(F)(F)F)c2c1CN(c1cn[nH]c(=O)c1Cl)CC2 | 0.01 to 1000 nM
47 | O=c1[nH]ncc(N2CCc3c(nc(Oc4cccc(F)c4)n3Cc3ccccc3C(F)(F)F)C2)c1Cl | 0.01 to 1000 nM
48 | O=C(c1nn(Cc2ccccc2C(F)F)c2c1CN(c1cn[nH]c(=O)c1Cl)CC2)N1CCOCC1 | 0.01 to 1000 nM
49 | O=c1[nH]ncc(N2CCc3c(Nc4ccc(F)cc4C(F)(F)F)n[nH]c3C2)c1Cl | 0.01 to 1000 nM
50 | C[C@H](c1cccnc1CC(F)F)n1nnc2c1CCN(c1cn[nH]c(=O)c1Cl)C2 | 0.01 to 1000 nM
51 | C[C@@H]1CCC[C@H]1Cn1nnc2c1CCN(c1cn[nH]c(=O)c1Cl)C2 | 0.01 to 1000 nM
52 | Cn1c(=O)c2c(n1Cc1ccccc1C(F)F)CCN(c1cn[nH]c(=O)c1Cl)C2 | 0.01 to 1000 nM
53 | C[C@@H](c1ccc(F)cc1CN1CCOCC1)n1nnc2c1CCN(c1cn[nH]c(=O)c1Cl)C2 | 1000 to 5000 nM
54 | O=c1[nH]ncc(N2CCc3c(nnn3Cc3ccc(F)cc3Cl)C2)c1Cl | 0.01 to 1000 nM
55 | C[C@H](c1ccc(F)cc1C(F)(F)F)n1[nH]c(=O)c2c1CCN(c1cn[nH]c(=O)c1Cl)C2 | 0.01 to 1000 nM
